# Values of other authors in US20100167984A1, “Complex between human insulin and an amphiphilic polymer and use of this complex in the preparation of a fast-acting human insulin formulation” (ADOCIA, priority 2008, published 2010).
# What was measured:
# [1] = due to dissociation equilibria of hexamers; Brange J. et al. 1999
# [2] = hexamer form, at 4° C.
substance,measurement,setting,value
"Human insulin: human insulin, assembled in the hexamer form",slowing down of action in comparison with a fast-acting insulin analog,[1],approximately 20 minutes
same,stability (storage time),[2],approximately 2 years
